# Results: patent publication US4120864A, “1,2,4-4H-triazole derivatives” (Rohm and Haas Company, priority 1972, dated 1978)
# Where a name gives a salt, the structure may show the parent alone. Read-outs that look alike come from different tables or passages of the source.
# Experiments:
# [1] = test system: wheat leaf rust, Puccinia recondita; experiment: whole plant or invertebrate; format: in vivo; conditions: foliar; for pest or weed control at 280.212 g/ha: read-out: % Control (without rain), foliar, 0.25 lb.; for pest or weed control at 1120.85 g/ha: read-out: % Control (without rain), foliar, 1 lb.
# [2] = test system: wheat leaf rust, Puccinia recondita; experiment: whole plant or invertebrate; format: in vivo; conditions: foliar; for pest or weed control at 280.212 g/ha: read-out: % Control (with 1" of rain), foliar, 0.25 lb., 1" of rain; for pest or weed control at 1120.85 g/ha: read-out: % Control (with 1" of rain), foliar, 1 lb., 1" of rain
Compound,% Control (without rain) ([1]; 0.25 lb.) [%],% Control (without rain) ([1]; 1 lb.) [%],"% Control (with 1"" of rain) ([2]; 0.25 lb.) [%]","% Control (with 1"" of rain) ([2]; 1 lb.) [%]",pest or weed control at 280.212 g/ha [1] [%],pest or weed control at 1120.85 g/ha [1] [%],pest or weed control at 280.212 g/ha [2] [%],pest or weed control at 1120.85 g/ha [2] [%]
"4-(1,3-dihydroxypropyl)-1,2,4-triazole [Example 22]",90,90,0,0,–,–,–,–
"c1nncn1C1CC1 [Example 2, 4-cyclopropyl-1,2,4-triazole]",–,–,–,–,90,90,40,0
"CCC(C)n1cnnc1 (stereo not shown) [Example 5, 4-sec-butyl-1,2,4-triazole]",–,–,–,–,97,99,78,69
"CC(C)(C)n1cnnc1 [Example 6, 4-t-butyl-1,2,4-triazole]",–,–,–,–,100,100,95,95
"CCCCCn1cnnc1 [Example 7, 4-n-pentyl-1,2,4-triazole]",–,–,–,–,100,100,100,100
"CCCCCCCCCCn1cnnc1 [Example 12, 4-n-decyl-1,2,4-triazole]",–,–,–,–,57,100,48,78
"CC=CCn1cnnc1 [Example 14, 4-(2-butenyl)-1,2,4-triazole]",–,–,–,–,100,100,99,100
"C#CCn1cnnc1 [Example 15, 4-propargyl-1,2,4-triazole]",–,–,–,–,100,100,99,100
"C#CC(C)(C)n1cnnc1 [Example 16, 4-(1,1-dimethylpropargyl)-1,2,4-triazole]",–,–,–,–,0,0,0,0
"OCCn1cnnc1 [Example 17, 4-(2-hydroxyethyl)-1,2,4-triazole]",–,–,–,–,60,5,0,0
"CCC(O)Cn1cnnc1 (stereo not shown) [Example 19, 4-(2-hydroxybutyl)-1,2,4-triazole]",–,–,–,–,65,65,0,0
"CC(O)CCn1cnnc1 (stereo not shown) [Example 20, 4-(3-hydroxybutyl)-1,2,4-triazole]",–,–,–,–,0,0,0,0
"OCCCCn1cnnc1 [Example 21, 4-(4-hydroxybutyl)-1,2,4-triazole]",–,–,–,–,10,10,0,0
Clc1ccc(OCCn2cnnc2)cc1 [Example 26],–,–,–,–,0,10,0,0
"Clc1ccc(OCCn2cnnc2)c(Cl)c1 [Example 29, 4-(2-(2,4-dichlorophenoxy)ethyl)-1,2,4-triazole]",–,–,–,–,0,20,0,0
"Clc1ccc(SCCn2cnnc2)cc1 [Example 30, 4-(2-(4-chlorothiophenoxy)ethyl)-1,2,4-triazole]",–,–,–,–,90,95,35,75
"Clc1ccc(SCCn2cnnc2)cc1Cl [Example 31, 4-(2-(3,4-dichlorothiophenoxy)ethyl)-1,2,4-triazole]",–,–,–,–,95,98,45,60
"COc1ccc(SCCn2cnnc2)cc1 [Example 32, 4-(2-(4-methoxythiophenoxy)ethyl)-1,2,4-trianzole]",–,–,–,–,95,99,30,85
"c1ccc(CCn2cnnc2)cc1 [Example 33, 4-phenethyl-1,2,4-triazole]",–,–,–,–,100,100,–,–
"COc1ccc(CCn2cnnc2)cc1 [Example 34, 4-(4-methoxyphenethyl)-1,2,4-triazole]",–,–,–,–,15,25,15,15
CCN(CC)CCn1cnnc1 [Example 35],–,–,–,–,30,40,0,10

Compound,% Control (without rain) ([1]; 0.25 lb.) [%],% Control (without rain) ([1]; 1 lb.) [%],"% Control (with 1"" of rain) ([2]; 0.25 lb.) [%]","% Control (with 1"" of rain) ([2]; 1 lb.) [%]",pest or weed control at 280.212 g/ha [1] [%],pest or weed control at 1120.85 g/ha [1] [%],pest or weed control at 280.212 g/ha [2] [%],pest or weed control at 1120.85 g/ha [2] [%]
"c1nc(CCn2cnnc2)c[nH]1 [Example 36, 4-[2-(4-imidazolyl)]-1,2,4-triazole]",–,–,–,–,0,10,0,10
"c1nncn1CCCCn1cnnc1 [Example 37, 4-[4-(1,2,4-triazyl)butyl]-1,2,4-triazole]",–,–,–,–,0,0,5,0
"CCOC(=O)CC(C)n1cnnc1 (stereo not shown) [Example 40, 4-(1-methyl-2-ethoxycarbonylethyl)-1,2,4-triazole]",–,–,–,–,40,40,10,10
"O=C(O)CCn1cnnc1 [Example 41, 4-(2-carboxyethyl)-1,2,4-triazole]",–,–,–,–,85,90,0,0
"O=C(O)CCCn1cnnc1 [Example 44, 4-(3-carboxypropyl)-1,2,4-triazole]",–,–,–,–,20,75,35,5
"CC(C)OCCCn1cnnc1 [Example 48, 4-(3-isopropoxypropyl)-1,2,4-triazole]",–,–,–,–,0,0,0,0
"COc1ccc(Cn2cnnc2)cc1 [Example 50, 4-(4-methoxybenzyl)-1,2,4-triazole]",–,–,–,–,100,–,–,100
"Clc1ccc(Cn2cnnc2)c(Cl)c1 [Example 52, 4-(2,4-dichlorobenzyl)-1,2,4-triazole]",–,–,–,–,0,20,5,10
"Clc1ccc(Cn2cnnc2)cc1Cl [Example 53, 4-(3,4-dichloroenzyl)-1,2,4-triazole]",–,–,–,–,60,70,10,30
"c1ccc(-n2cnnc2)cc1 [Example 54, 4-phenyl-1,2,4-triazole]",–,–,–,–,75,90,25,85
"Clc1cccc(-n2cnnc2)c1 [Example 55, 4-(3-chlorophenyl)-1,2,4-triazole hydrochloride]",–,–,–,–,100,100,–,–
"Clc1ccc(-n2cnnc2)c(Cl)c1 [Example 56, 4-(2,4-dichlorophenyl)-1,2,4-triazole]",–,–,–,–,90,65,0,5
"O=[N+]([O-])c1cccc(-n2cnnc2)c1 [Example 58, 4-(3-nitrophenyl)-1,2,4-triazole]",–,–,–,–,80,80,0,0
"O=[N+]([O-])c1ccc(-n2cnnc2)cc1 [Example 59, 4-(4-nitrophenyl)-1,2,4-triazole]",–,–,–,–,97,98,58,79
"COc1ccc(-n2cnnc2)cc1 [Example 60, 4-(4-methoxyphenyl)-1,2,4-triazole]",–,–,–,–,100,100,95,97
"c1cc(-n2cnnc2)ccn1 [Example 61, 4-(4-pyridyl)-1,2,4-triazole]",–,–,–,–,10,10,0,0
"c1ccc(-n2cnnc2)nc1 [Example 62, 4-(2-pyridyl)-1,2,4-triazole]",–,–,–,–,100,100,–,99
"c1nncn1N1CCOCC1 [Example 64, 4-morpholino-1,2,4-triazole]",–,–,–,–,88,94,–,–
c1nncn1-n1cnnc1 [Example 65],–,–,–,–,64,78,–,–
"O=C(Sc1nncn1-c1ccccc1)c1cccc([N+](=O)[O-])c1 [Example 130, 3-(3-nitrobenzoylmercapto)-4-phenyl-1,2,4-triazole]",–,–,–,–,97,100,–,–
